Positions of bridges follow the written chain, without caps; N, C: chain ends. Residues, ends and D or L forms follow the SMILES beside them.
Key:
[1] = target: T1, hVEGF-A (8-109) (Homo sapiens, UniProt P15692); assay: SPR binding assay (BIACORE 3000, 37° C.)
T1 sequence (P15692 34-135 isoform P15692-4): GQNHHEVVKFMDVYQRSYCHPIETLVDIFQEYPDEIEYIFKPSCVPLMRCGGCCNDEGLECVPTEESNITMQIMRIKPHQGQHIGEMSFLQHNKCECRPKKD
How it was run: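 VEGF-A, biotinylated and captured on streptavidin sensor or amine-coupled to CM5 at pH 5.0, to about 400 RU. Peptide concentration series in HBS-EP with 0.1% DMSO injected at […]; kinetics and affinities from 1:1 binding model fits.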

[2] = target: T2, VEGF human 165 (Homo sapiens, UniProt P15692); assay: SPR binding assay; conditions: for ka / kd: human 165, Table 30
T2 sequence (P15692 27-191 isoform P15692-4): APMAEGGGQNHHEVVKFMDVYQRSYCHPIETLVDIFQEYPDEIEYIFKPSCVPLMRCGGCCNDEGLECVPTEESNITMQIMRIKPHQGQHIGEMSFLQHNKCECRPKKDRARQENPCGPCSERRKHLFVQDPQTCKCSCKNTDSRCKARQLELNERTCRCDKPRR
Procedure: (§1) Depending on the format of the assay either a streptavidin sensor (SA) or a dextran-coated (CM5) sensor was utilized as described below.
(§2) For use with the SA sensor, VEGF-A was first biotinylated (no more than 2 biotin/VEGF-A) by incubating the protein with EZ-link NHS-PEG4-Biotin (Pierce) in a 1:1.5 molar ratio respectively, in PBS for 2 hours on ice. Reaction was then quenched by addition of 10 molar excess of Glycine pH 8.0 and the sample was buffer exchanged into PBS using an Amicon 0.5 mL 3000 MWCO ultra-centrifugal filters (EMD Millipore). The biotinylation state of the protein was verified by LC-MS analysis. Biotinylated VEGF-A was then captured on the surface until a resonance unit (RU) signal of about ˜400. For immobilization of VEGF-A on CM5 sensor, the surface was first activated with a mixture of N-ethyl-N′-(3-dimethylaminopropyl)carbodiimide hydrochloride and N-hydroxysuccinimide (EDC/NHS) according to the supplier instructions. VEGF-A was then diluted into coupling buffer (0.1 M Acetate Buffer, pH 5.0) and injected until the signal reached about ˜400 RU followed by a wash with 1 M ethanolamine pH 8.0 to quench remaining activated sites.
(§3) Following the capture step, a series of the peptide concentrations were prepared in HBS-EP buffer with matching DMSO concentrations to 0.1% and injected at a flow rate of […]. The resulting sensorgrams were then analyzed using a 1:1 binding model to obtain kinetic data and affinities using Scrubber 2.0 (BioLogic Software).

[3] = target: T3, VEGF mouse 164 (Mus musculus, UniProt Q00731); assay: SPR binding assay; conditions: for ka / kd: mouse 164, Table 30
T3 sequence (Q00731 27-190 isoform Q00731-2): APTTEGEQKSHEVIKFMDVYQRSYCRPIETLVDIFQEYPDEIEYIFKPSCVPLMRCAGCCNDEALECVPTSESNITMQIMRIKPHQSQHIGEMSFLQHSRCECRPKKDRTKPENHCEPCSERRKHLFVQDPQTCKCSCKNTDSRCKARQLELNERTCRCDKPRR
Procedure: as §1, §2, §3

[4] = target: T4, rabbit VEGF-A (Oryctolagus cuniculus, UniProt G1T1L9); assay: SPR binding assay; conditions: for ka / kd: rabbit, Table 30
T4 sequence (G1T1L9 1-398): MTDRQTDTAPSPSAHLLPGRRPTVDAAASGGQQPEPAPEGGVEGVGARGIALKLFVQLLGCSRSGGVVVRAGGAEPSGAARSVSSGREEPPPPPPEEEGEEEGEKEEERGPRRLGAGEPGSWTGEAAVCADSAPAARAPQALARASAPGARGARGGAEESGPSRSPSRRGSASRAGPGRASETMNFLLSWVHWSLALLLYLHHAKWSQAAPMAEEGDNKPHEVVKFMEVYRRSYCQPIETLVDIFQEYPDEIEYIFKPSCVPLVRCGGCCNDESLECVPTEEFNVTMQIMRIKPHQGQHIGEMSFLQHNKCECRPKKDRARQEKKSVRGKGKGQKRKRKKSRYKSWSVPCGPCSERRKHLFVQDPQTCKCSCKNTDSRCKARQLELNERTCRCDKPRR
Procedure: as §1, §2, §3

[5] = target: T5, rat VEGF-A (Rattus norvegicus, UniProt P16612); assay: SPR binding assay; conditions: for ka / kd: rat, Table 30
T5 sequence (P16612 27-139 limits assumed): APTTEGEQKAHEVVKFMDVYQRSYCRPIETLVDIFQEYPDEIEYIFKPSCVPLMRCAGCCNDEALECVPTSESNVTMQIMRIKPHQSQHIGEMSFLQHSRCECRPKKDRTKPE
Procedure: as §1, §2, §3

[6] = KD, Table 37, surface plasmon resonance, VEGF-A
[7] = Table 37, surface plasmon resonance, VEGF-A

Compound | Kd ([1]; KD (nM), hVEGF-A WT) | Kd ([1]; KD (nM), human 8-109, Table 30) | Kd [1, 6] | kd [1, 7] | kd ([1]; hVEGF-A WT) | kd ([1]; human 8-109, Table 30) | Kd [2] | ka [2] | kd [2] | Kd [3] | ka [3] | kd [3] | Kd [4] | ka [4] | kd [4] | Kd [5] | ka [5] | kd [5] | kd ([1]; hVEGF-A (8-109), Table 29) | other results
CC[C@H](C)[C@@H]1NC(=O)[C@H](CC(N)=O)NC(=O)[C@@H](NC(=O)CN)CSSC[C@@H](C(=O)N[C@H](C(=O)N[C@H]2CSSC[C@@H](C(=O)NCC(=O)O)NC(=O)[C@H](CO)NC(=O)[C@H](CCC(N)=O)NC(=O)[C@H](Cc3ccc(O)cc3)NC(=O)[C@H](Cc3ccc(O)cc3)NC(=O)[C@H](CCC(N)=O)NC2=O)C(C)C)NC(=O)CNC(=O)[C@H](C)NC(=O)[C@H](CC(C)C)NC(=O)[C@@H]2CSSC[C@H](NC(=O)CNC(=O)[C@H](Cc3c[nH]c4ccccc34)NC(=O)[C@H](Cc3ccccc3)NC(=O)[C@@H]3CCCN3C(=O)[C@H](CC(C)C)NC(=O)[C@H](CCSC)NC1=O)C(=O)NCC(=O)N[C@@H](CCCNC(=N)N)C(=O)N[C@@H](CC(=O)O)C(=O)N[C@@H](Cc1ccccc1)C(=O)N[C@@H](CCC(=O)O)C(=O)N2 [VEGF_CKP9.54.90] (H-GCNIMLPFWGCGRDFECLAGCVCQYYQSCG-OH; disulfide 2-21, 11-17, 23-29; N-terminus and C-terminus assumed) | 0.37 nM | 0.87 nM | 0.4 ± 0.08 nM | 0.17 | 0.0300 | 4.05 × 10^−2 | 0.00089 µM | 1.58 × 10^7 | 1.33 × 10^−2 | 0.00131 µM | 8.71 × 10^6 | 1.01 × 10^−2 | 0.00114 µM | 5.15 × 10^7 | 6.75 × 10^−2 | 0.0009 µM | 1.72 × 10^7 | 1.35 × 10^−2 |  | 
CC[C@H](C)[C@@H]1NC(=O)[C@H](CC(N)=O)NC(=O)[C@@H](NC(=O)CN)CSSC[C@@H](C(=O)N[C@H](C(=O)N[C@H]2CSSC[C@@H](C(=O)NCC(=O)O)NC(=O)[C@H](CO)NC(=O)[C@H](CCC(N)=O)NC(=O)[C@H](Cc3ccc(O)cc3)NC(=O)[C@H](Cc3ccc(O)cc3)NC(=O)[C@H](CCC(N)=O)NC2=O)C(C)C)NC(=O)CNC(=O)[C@H](C)NC(=O)[C@H](CC(C)C)NC(=O)[C@@H]2CSSC[C@H](NC(=O)CNC(=O)[C@H](Cc3c[nH]c4ccccc34)NC(=O)[C@H](Cc3ccccc3)NC(=O)[C@@H]3CCCN3C(=O)[C@H](CC(C)C)NC(=O)[C@H](CCSC)NC1=O)C(=O)N[C@@H](CCCCN)C(=O)N[C@@H](CCC(N)=O)C(=O)N[C@@H](CC(=O)O)C(=O)N[C@@H](CO)C(=O)N[C@@H](CC(=O)O)C(=O)N2 [VEGF_CKP9.54] (H-GCNIMLPFWGCKQDSDCLAGCVCQYYQSCG-OH; disulfide 2-21, 11-17, 23-29 (inferred); N-terminus and C-terminus assumed) | 55 nM | 176 nM | 44 ± 6 nM | 2.3 | 0.2349 | 2.18 × 10^−1 | 0.19 µM | 8.23 × 10^5 | 1.49 × 10^−1 | 0.25 µM | 8.26 × 10^5 | 2.07 × 10^−1 | 0.133 µM | 2.10 × 10^6 | 2.74 × 10^−1 | 0.176 µM | 1.93 × 10^6 | 2.96 × 10^−1 |  | 
CC[C@H](C)[C@@H]1NC(=O)[C@H](CC(=O)O)NC(=O)[C@@H]2CCCN2C(=O)CNC(=O)[C@@H]2CSSC[C@H](NC(=O)[C@H](CC(=O)O)NC1=O)C(=O)N[C@@H](CC(C)C)C(=O)N[C@@H](C)C(=O)NCC(=O)N[C@H](C(=O)N[C@H](C(=O)N[C@H]1CSSC[C@@H](C(=O)NCC(=O)O)NC(=O)[C@H](CO)NC(=O)[C@H](CC(N)=O)NC(=O)[C@H](Cc3ccc(O)cc3)NC(=O)[C@H](Cc3c[nH]c4ccccc34)NC(=O)[C@H](Cc3c[nH]cn3)NC1=O)C(C)C)CSSC[C@H](NC(=O)CN)C(=O)N[C@@H](CC(=O)O)C(=O)N[C@@H](C(C)C)C(=O)N[C@@H](CCSC)C(=O)N[C@@H](CCC(N)=O)C(=O)N1CCC[C@H]1C(=O)N[C@@H](Cc1ccc(O)cc1)C(=O)N[C@@H](Cc1c[nH]c3ccccc13)C(=O)NCC(=O)N2 [VEGF_CKP9.63.12] (H-GCDVMQPYWGCGPDIDCLAGCVCHWYNSCG-OH; disulfide 2-21, 11-17, 23-29 (inferred); N-terminus and C-terminus assumed) |  |  |  |  | 0.0096 | 2.50 × 10^−2 |  | 4.65 × 10^6 | 2.01 × 10^−2 |  | 1.04 × 10^6 | 1.32 × 10^−2 |  | 6.91 × 10^6 | 1.78 × 10^−2 |  | 6.44 × 10^6 | 2.59 × 10^−2 | 0.10 | 
CSCC[C@@H]1NC(=O)[C@H](C(C)C)NC(=O)[C@H](CC(=O)O)NC(=O)[C@@H](NC(=O)CN)CSSC[C@@H](C(=O)N[C@H](C(=O)N[C@H]2CSSC[C@@H](C(=O)NCC(=O)O)NC(=O)[C@H](CO)NC(=O)[C@H](CC(N)=O)NC(=O)[C@H](Cc3ccc(O)cc3)NC(=O)[C@H](Cc3c[nH]c4ccccc34)NC(=O)[C@H](Cc3c[nH]cn3)NC2=O)C(C)C)NC(=O)CNC(=O)[C@H](C)NC(=O)[C@H](CC(C)C)NC(=O)[C@@H]2CSSC[C@H](NC(=O)CNC(=O)[C@H](Cc3c[nH]c4ccccc34)NC(=O)[C@H](Cc3ccc(O)cc3)NC(=O)[C@@H]3CCCN3C(=O)[C@H](CCC(N)=O)NC1=O)C(=O)N[C@@H](CCCCN)C(=O)N[C@@H](CCC(N)=O)C(=O)N[C@@H](CC(=O)O)C(=O)N[C@@H](CO)C(=O)N[C@@H](CC(=O)O)C(=O)N2 [VEGF_CKP9.63] (H-GCDVMQPYWGCKQDSDCLAGCVCHWYNSCG-OH; disulfide 2-21, 11-17, 23-29 (inferred); N-terminus and C-terminus assumed) | 100 nM | 281 nM |  |  | 0.1624 | 1.81 × 10^−1 | 0.382 µM | 3.40 × 10^5 | 1.30 × 10^−1 | 0.289 µM | 5.57 × 10^5 | 1.60 × 10^−1 | 0.311 µM | 4.24 × 10^5 | 1.30 × 10^−1 | 0.524 µM | 4.56 × 10^5 | 2.46 × 10^−1 | 1.6 | Kd ([1]; KD, hVEGF-A (8-109), Table 29): 100 nM; ka ([1]; human 8-109, Table 30): 6.62 × 10^5

From US11155586B2, “Cystine knot scaffold platform” (Genentech, Inc., priority 2015, dated 2021)
